{"source": "PubChem BioAssay (NCI)", "assay_in_all_cases": "NCI anticancer screen, dose series, 48 h", "key": {"[1]": {"system": "IGROV1 ovarian"}, "[2]": {"system": "MDA-MB-435"}, "[3]": {"system": "HCT-15 colon"}, "[4]": {"system": "A498 renal"}, "[5]": {"system": "T-47D breast"}, "[6]": {"system": "OVCAR-8 ovarian"}, "[7]": {"system": "K-562 leukemia"}, "[8]": {"system": "SR leukemia"}, "[9]": {"system": "OVCAR-5 ovarian"}, "[10]": {"system": "NCI/ADR-RES ovarian"}, "[11]": {"system": "SN12C renal"}, "[12]": {"system": "LOX IMVI melanoma"}, "[13]": {"system": "HL-60(TB) leukemia"}, "[14]": {"system": "CAKI-1 renal"}, "[15]": {"system": "UACC-62 melanoma"}, "[16]": {"system": "786-0 renal"}, "[17]": {"system": "HCC-2998 colon"}, "[18]": {"system": "OVCAR-3 ovarian"}, "[19]": {"system": "NCI-H23 lung"}, "[20]": {"system": "SK-MEL-5 melanoma"}, "[21]": {"system": "MCF7 breast"}, "[22]": {"system": "PC-3 prostate"}, "[23]": {"system": "COLO 205 colon"}, "[24]": {"system": "MDA-N"}, "[25]": {"system": "SK-MEL-28 melanoma"}, "[26]": {"system": "NCI-H522 lung"}, "[27]": {"system": "MDA-MB-231 breast"}, "[28]": {"system": "RPMI-8226 leukemia"}, "[29]": {"system": "SW-620 colon"}, "[30]": {"system": "BT-549 breast"}, "[31]": {"system": "HT29 colon"}, "[32]": {"system": "A549 NSCLC"}, "[33]": {"system": "HOP-92 NSCLC"}, "[34]": {"system": "UO-31 renal"}, "[35]": {"system": "MALME-3M melanoma"}, "[36]": {"system": "CCRF-CEM leukemia"}, "[37]": {"system": "UACC-257 melanoma"}, "[38]": {"system": "KM12 colon"}, "[39]": {"system": "RXF 393 renal"}, "[40]": {"system": "EKVX NSCLC"}, "[41]": {"system": "M14 melanoma"}, "[42]": {"system": "HCT-116 colon"}, "[43]": {"system": "SK-OV-3 ovarian"}, "[44]": {"system": "SF-268 CNS"}, "[45]": {"system": "HOP-62 NSCLC"}, "[46]": {"system": "HS 578T breast"}, "[47]": {"system": "NCI-H226 lung"}, "[48]": {"system": "SNB-75 CNS"}, "[49]": {"system": "MOLT-4 leukemia"}, "[50]": {"system": "TK-10 renal"}, "[51]": {"system": "SNB-19 CNS"}, "[52]": {"system": "DU-145 prostate"}, "[53]": {"system": "U251 CNS"}, "[54]": {"system": "ACHN renal"}, "[55]": {"system": "SF-539 CNS"}, "[56]": {"system": "NCI-H460 lung"}, "[57]": {"system": "SF-295 CNS"}, "[58]": {"system": "OVCAR-4 ovarian"}}, "note": "Several values for one entry are separate records, joined by “and”; a condition that tells them apart may be missing. Identical values can stand only once.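 All cell lines were grown in 96-well plates and treated with compound for 48 hours. Abbreviation: GI50, concentration required for 50% inhibition of growth. Definition used: TGI = concentration required for complete inhibition of growth.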", "data": [{"compound": "CC/C(=C(\\c1ccccc1)c1ccc(OCCN(C)C)cc1)c1ccccc1", "values": [{"measurement": "GI50", "setting": "[1]", "result": 4.44, "unit": "µM"}, {"measurement": "GI50", "setting": "[2]", "result": 2.66, "unit": "µM"}, {"measurement": "GI50", "setting": "[3]", "result": 2.01, "unit": "µM"}, {"measurement": "GI50", "setting": "[4]", "result": 2.3, "unit": "µM"}, {"measurement": "GI50", "setting": "[5]", "result": 0.805, "unit": "µM"}, {"measurement": "GI50", "setting": "[6]", "result": 5.35, "unit": "µM"}, {"measurement": "GI50", "setting": "[7]", "result": 1.84, "unit": "µM"}, {"measurement": "GI50", "setting": "[8]", "result": 1.82, "unit": "µM"}, {"measurement": "GI50", "setting": "[9]", "result": 6.76, "unit": "µM"}, {"measurement": "GI50", "setting": "[10]", "result": 2.86, "unit": "µM"}, {"measurement": "GI50", "setting": "[11]", "result": 3.34, "unit": "µM"}, {"measurement": "GI50", "setting": "[12]", "result": 1.49, "unit": "µM"}, {"measurement": "GI50", "setting": "[13]", "result": 1.78, "unit": "µM"}, {"measurement": "GI50", "setting": "[14]", "result": 3.42, "unit": "µM"}, {"measurement": "GI50", "setting": "[15]", "result": 1.75, "unit": "µM"}, {"measurement": "GI50", "setting": "[16]", "result": 2.96, "unit": "µM"}, {"measurement": "GI50", "setting": "[17]", "result": 0.878, "unit": "µM"}, {"measurement": "GI50", "setting": "[18]", "result": 2.84, "unit": "µM"}, {"measurement": "GI50", "setting": "[19]", "result": 3.68, "unit": "µM"}, {"measurement": "GI50", "setting": "[20]", "result": 0.852, "unit": "µM"}, {"measurement": "GI50", "setting": "[21]", "result": 1.12, "unit": "µM"}, {"measurement": "GI50", "setting": "[22]", "result": 2.47, "unit": "µM"}, {"measurement": "GI50", "setting": "[23]", "result": 0.892, "unit": "µM"}, {"measurement": "GI50", "setting": "[24]", "result": "> 25 µM and 6.53 µM"}, {"measurement": "TGI", "setting": "[24]", "result": "> 25 µM and 8.31 µM and 9.59 µM"}, {"measurement": "GI50", "setting": "[25]", "result": 1.6, "unit": "µM"}, {"measurement": "GI50", "setting": "[26]", "result": 1.42, "unit": "µM"}, {"measurement": "GI50", "setting": "[27]", "result": 3.59, "unit": "µM"}, {"measurement": "GI50", "setting": "[28]", "result": 1.2, "unit": "µM"}, {"measurement": "GI50", "setting": "[29]", "result": 2.95, "unit": "µM"}, {"measurement": "GI50", "setting": "[30]", "result": 6.8, "unit": "µM"}, {"measurement": "GI50", "setting": "[31]", "result": 1.17, "unit": "µM"}, {"measurement": "GI50", "setting": "[32]", "result": 2.93, "unit": "µM"}, {"measurement": "GI50", "setting": "[33]", "result": 1.43, "unit": "µM"}, {"measurement": "GI50", "setting": "[34]", "result": 5.73, "unit": "µM"}, {"measurement": "GI50", "setting": "[35]", "result": 1.91, "unit": "µM"}, {"measurement": "GI50", "setting": "[36]", "result": 2.33, "unit": "µM"}, {"measurement": "GI50", "setting": "[37]", "result": 0.971, "unit": "µM"}, {"measurement": "GI50", "setting": "[38]", "result": 2.55, "unit": "µM"}, {"measurement": "GI50", "setting": "[39]", "result": 1.39, "unit": "µM"}, {"measurement": "GI50", "setting": "[40]", "result": 4.74, "unit": "µM"}, {"measurement": "GI50", "setting": "[41]", "result": 1.02, "unit": "µM"}, {"measurement": "GI50", "setting": "[42]", "result": 2.25, "unit": "µM"}]}, {"compound": "Cc1cccc2c1C(=O)C1(Cc3ccccc3C1=O)C2", "note": "(stereo not drawn)", "values": [{"measurement": "TGI", "setting": "[1]", "result": "> 100", "unit": "µM"}, {"measurement": "TGI", "setting": "[2]", "result": "> 100", "unit": "µM"}, {"measurement": "TGI", "setting": "[3]", "result": "> 100", "unit": "µM"}, {"measurement": "TGI", "setting": "[43]", "result": "> 100", "unit": "µM"}, {"measurement": "TGI", "setting": "[4]", "result": "> 100", "unit": "µM"}, {"measurement": "TGI", "setting": "[5]", "result": "> 100", "unit": "µM"}, {"measurement": "TGI", "setting": "[6]", "result": "> 100", "unit": "µM"}, {"measurement": "TGI", "setting": "[44]", "result": "> 100", "unit": "µM"}, {"measurement": "TGI", "setting": "[7]", "result": "> 100", "unit": "µM"}, {"measurement": "TGI", "setting": "[8]", "result": "> 100", "unit": "µM"}, {"measurement": "TGI", "setting": "[9]", "result": "> 100", "unit": "µM"}, {"measurement": "TGI", "setting": "[10]", "result": "> 100", "unit": "µM"}, {"measurement": "TGI", "setting": "[11]", "result": "> 100", "unit": "µM"}, {"measurement": "TGI", "setting": "[45]", "result": "> 100", "unit": "µM"}, {"measurement": "TGI", "setting": "[12]", "result": "> 100", "unit": "µM"}, {"measurement": "TGI", "setting": "[46]", "result": "> 100", "unit": "µM"}, {"measurement": "TGI", "setting": "[13]", "result": "> 100", "unit": "µM"}, {"measurement": "TGI", "setting": "[47]", "result": "> 100", "unit": "µM"}, {"measurement": "TGI", "setting": "[15]", "result": "> 100", "unit": "µM"}, {"measurement": "TGI", "setting": "[48]", "result": "> 100", "unit": "µM"}, {"measurement": "TGI", "setting": "[49]", "result": "> 100", "unit": "µM"}, {"measurement": "TGI", "setting": "[16]", "result": "> 100", "unit": "µM"}, {"measurement": "TGI", "setting": "[17]", "result": "> 100", "unit": "µM"}, {"measurement": "TGI", "setting": "[50]", "result": "> 100", "unit": "µM"}, {"measurement": "TGI", "setting": "[51]", "result": "> 100", "unit": "µM"}, {"measurement": "TGI", "setting": "[52]", "result": "> 100", "unit": "µM"}, {"measurement": "TGI", "setting": "[18]", "result": "> 100", "unit": "µM"}, {"measurement": "TGI", "setting": "[19]", "result": "> 100", "unit": "µM"}, {"measurement": "TGI", "setting": "[53]", "result": "> 100", "unit": "µM"}, {"measurement": "TGI", "setting": "[20]", "result": "> 100", "unit": "µM"}, {"measurement": "TGI", "setting": "[21]", "result": "> 100", "unit": "µM"}, {"measurement": "TGI", "setting": "[22]", "result": "> 100", "unit": "µM"}, {"measurement": "TGI", "setting": "[23]", "result": "> 100", "unit": "µM"}, {"measurement": "TGI", "setting": "[24]", "result": "> 100", "unit": "µM"}, {"measurement": "TGI", "setting": "[54]", "result": "> 100", "unit": "µM"}, {"measurement": "TGI", "setting": "[25]", "result": "> 100", "unit": "µM"}, {"measurement": "TGI", "setting": "[26]", "result": "> 100", "unit": "µM"}, {"measurement": "TGI", "setting": "[27]", "result": "> 100", "unit": "µM"}, {"measurement": "TGI", "setting": "[28]", "result": "> 100", "unit": "µM"}, {"measurement": "TGI", "setting": "[29]", "result": "> 100", "unit": "µM"}, {"measurement": "TGI", "setting": "[31]", "result": "> 100", "unit": "µM"}, {"measurement": "TGI", "setting": "[32]", "result": "> 100", "unit": "µM"}, {"measurement": "TGI", "setting": "[55]", "result": "> 100", "unit": "µM"}, {"measurement": "TGI", "setting": "[33]", "result": "> 100", "unit": "µM"}, {"measurement": "TGI", "setting": "[34]", "result": 96.2, "unit": "µM"}, {"measurement": "TGI", "setting": "[35]", "result": "> 100", "unit": "µM"}, {"measurement": "TGI", "setting": "[36]", "result": "> 100", "unit": "µM"}, {"measurement": "TGI", "setting": "[37]", "result": "> 100", "unit": "µM"}, {"measurement": "TGI", "setting": "[39]", "result": "> 100", "unit": "µM"}, {"measurement": "TGI", "setting": "[40]", "result": "> 100", "unit": "µM"}, {"measurement": "TGI", "setting": "[41]", "result": "> 100", "unit": "µM"}, {"measurement": "TGI", "setting": "[56]", "result": "> 100", "unit": "µM"}, {"measurement": "TGI", "setting": "[57]", "result": "> 100", "unit": "µM"}, {"measurement": "TGI", "setting": "[42]", "result": "> 100", "unit": "µM"}, {"measurement": "TGI", "setting": "[58]", "result": "> 100", "unit": "µM"}]}]}
